{
  "source": "patent US9420794B2",
  "about": "“Herbicidal composition” (ISHIHARA SANGYO KAISHA, LTD., priority 2012, dated 2016)",
  "type_in_all_cases": "in vivo",
  "key": {"[1]": {"test_system": "korean lespedeza (Kummerowia stipulacea (Maxim.) Makino)", "assay": "Test Example 2: pot test, soil treatment, growth inhibition of korean lespedeza", "conditions": "read-out: Growth inhibition rate of korean lespedeza (%) Measured value", "protocol": "(§1) Growth inhibition rate (%)=0 (equivalent to the non-treated area) to 100 (complete kill)\n(§2) Upland field soil was put into a 1/160,000 ha pot, and seeds of korean lespedeza (Kummerowia stipulacea (Maxim.) Makino) were sown. On the next day, predetermined amounts of ONEHOPE NYUZAI (tradename), Clio (tradename) and Spectrum (tradename) were diluted with water (in an amount corresponding to 300 L/ha) and applied for soil treatment by a small sprayer.\n(§3) On the 14th day after treatment, the state of growth of the korean lespedeza was visually observed to determine the growth inhibition rate (%). The growth inhibition rate (%) (measured value) and the growth inhibition rate (%) calculated in the same manner as in the above Test Example 1 are shown in Table 2."}, "[2]": {"test_system": "annual ragweed (Ambrosia artemisiifolia L.)", "assay": "Test Example 3: pot test, foliar treatment, growth inhibition of annual ragweed", "conditions": "read-out: Growth inhibition rate of annual ragweed (%) Measured value", "protocol": "as §1\nUpland field soil was put into a 1/1,000,000 ha pot, and seeds of annual ragweed (Ambrosia artemisiifolia L.) were sown. When the annual ragweed reached 6.0 to 8.0-leaf stage, predetermined amounts of ONEHOPE NYUZAI (tradename), Clio (tradename) and Spectrum (tradename) were diluted with water (in an amount corresponding to 300 L/ha) and applied for foliar treatment by a small sprayer.\nas §3, with “20 th” for “14th”, “annual ragweed” for “korean lespedeza”, “3.” for “2.”"}, "[3]": {"test_system": "wild oat (Avena fatua L.)", "assay": "Test Example 4: pot test, soil treatment, growth inhibition of wild oat", "conditions": "read-out: Growth inhibition rate of wild oat (%) Measured value", "protocol": "as §1\nas §2, with “wild oat (Avena fatua L.)” for “korean lespedeza (Kummerowia stipulacea (Maxim.) Makino)”\nas §3, with “28 th” for “14th”, “wild oat” for “korean lespedeza”, “4.” for “2.”"}, "[4]": {"test_system": "velvetleaf (Abutilon theophrasti Medic.)", "assay": "Test Example 1: pot test, soil treatment, growth inhibition of velvetleaf", "conditions": "read-out: Growth inhibition rate of velvetleaf (%) Measured value", "text": "Upland field soil was put into a 1/300,000 ha pot, and seeds of velvetleaf (Abutilon theophrasti Medic.) were sown. On the next day, predetermined amounts of a flowable containing nicosulfuron as an active ingredient (tradename: ONEHOPE NYUZAI, manufactured by Ishihara Sangyo Kaisha, Ltd.), an emulsifiable concentrate containing dimethenamid-P as an active ingredient (tradename: Spectrum, manufactured by BASF) and a flowable containing topramezone as an active ingredient (tradename: Clio, manufactured by BASF) were diluted with water (in an amount corresponding to 1,000 L/ha) and applied for soil treatment by a small sprayer.\nOn the 28th day after treatment, the state of growth of the velvetleaf was visually observed to determine the growth inhibition rate (%) in accordance with the following evaluation standard. The growth inhibition rate (%) (measured value) and the growth inhibition rate (%) (calculated value) calculated by the Colby's formula are shown in Table 1.\nas §1"}},
  "note": "Like-named read-outs stand apart in the source and are kept apart here.",
  "data": [
    {"smiles": "COc1cc(OC)nc(NC(=O)NS(=O)(=O)c2ncccc2C(=O)N(C)C)n1", "note": "[Nicosulfuron, 2-(4,6-dimethoxypyrimidin-2-ylcarbamoylsulfamoyl)-N,N-dimethylnicotinamide]", "values": [
      {"measurement": "inhibition at 10 g/ha", "setting": "[1]; dose 10 g/ha, soil treatment, 14th day after treatment", "result": 0, "unit": "%"},
      {"measurement": "inhibition at 100 g/ha", "setting": "[1]; dose 100 g/ha, soil treatment, 14th day after treatment", "result": 10, "unit": "%"},
      {"measurement": "inhibition at 30 g/ha", "setting": "[2]; dose 30 g/ha, foliar treatment at 6.0 to 8.0-leaf stage, 20th day after treatment", "result": 13, "unit": "%"},
      {"measurement": "inhibition at 100 g/ha", "setting": "[3]; dose 100 g/ha, soil treatment, 28th day after treatment", "result": 60, "unit": "%"},
      {"measurement": "inhibition at 15 g/ha", "setting": "[4]; dose 15 g/ha, soil treatment, 28th day after treatment", "result": 0, "unit": "%"}
    ]},
    {"smiles": "Cc1c(C(=O)c2cnn(C)c2O)ccc(S(C)(=O)=O)c1C1=NOCC1", "note": "[Topramezone, [3-(4,5-dihydro-1,2-oxazol-3-yl)-4-mesyl-o-tolyl](5-hydroxy-1-methylpyrazol-4-yl)methanone]", "values": [
      {"measurement": "inhibition at 15 g/ha", "setting": "[1]; soil", "result": 0, "unit": "%"},
      {"measurement": "inhibition at 100 g/ha", "setting": "[1]; soil", "result": 10, "unit": "%"},
      {"measurement": "inhibition at 20 g/ha", "setting": "[2]; foliar", "result": 40, "unit": "%"},
      {"measurement": "inhibition at 50 g/ha", "setting": "[2]; foliar", "result": 65, "unit": "%"},
      {"measurement": "inhibition at 15 g/ha", "setting": "[3]; soil", "result": 0, "unit": "%"},
      {"measurement": "inhibition at 20 g/ha", "setting": "[4]; soil", "result": 60, "unit": "%"}
    ]},
    {"smiles": "COC[C@H](C)N(C(=O)CCl)c1c(C)csc1C", "note": "[Dimethenamid-P, (S)-2-chloro-N-(2,4-dimethyl-3-thienyl)-N-(2-methoxy-1-methylethyl)acetamide]", "values": [
      {"measurement": "inhibition at 250 g/ha", "setting": "[1]; dose 250 g/ha, soil treatment, 14th day after treatment", "result": 30, "unit": "%"},
      {"measurement": "inhibition at 1500 g/ha", "setting": "[1]; dose 1500 g/ha, soil treatment, 14th day after treatment", "result": 30, "unit": "%"},
      {"measurement": "inhibition at 500 g/ha", "setting": "[2]; dose 500 g/ha, foliar treatment at 6.0 to 8.0-leaf stage, 20th day after treatment", "result": 0, "unit": "%"},
      {"measurement": "inhibition at 1000 g/ha", "setting": "[2]; dose 1000 g/ha, foliar treatment at 6.0 to 8.0-leaf stage, 20th day after treatment", "result": 0, "unit": "%"},
      {"measurement": "inhibition at 250 g/ha", "setting": "[3]; dose 250 g/ha, soil treatment, 28th day after treatment", "result": 60, "unit": "%"},
      {"measurement": "inhibition at 500 g/ha", "setting": "[4]; dose 500 g/ha, soil treatment, 28th day after treatment", "result": 20, "unit": "%"}
    ]}
  ]
}
